These results are taken from publication PMC6771811, “The structure of a GH149 β‐(1 → 3) glucan phosphorylase reveals a new surface oligosaccharide binding site and additional domains that are absent in the disaccharide‐specific GH94 glucose‐β‐(1 → 3)‐glucose (laminaribiose) phosphorylase” (Proteins, 2019).

The assay concerns the target T1, Pro_7066 (uncultured bacterium, UniProt Z9M604V374).
T1 construct: His6-tagged, pET28a, E. coli BL21 (DE3); tag removal not mentioned; 130-kDa chain, homodimer; domains span residues 1-1156; GH149
T1 sequence (Z9M604V374 20-1175): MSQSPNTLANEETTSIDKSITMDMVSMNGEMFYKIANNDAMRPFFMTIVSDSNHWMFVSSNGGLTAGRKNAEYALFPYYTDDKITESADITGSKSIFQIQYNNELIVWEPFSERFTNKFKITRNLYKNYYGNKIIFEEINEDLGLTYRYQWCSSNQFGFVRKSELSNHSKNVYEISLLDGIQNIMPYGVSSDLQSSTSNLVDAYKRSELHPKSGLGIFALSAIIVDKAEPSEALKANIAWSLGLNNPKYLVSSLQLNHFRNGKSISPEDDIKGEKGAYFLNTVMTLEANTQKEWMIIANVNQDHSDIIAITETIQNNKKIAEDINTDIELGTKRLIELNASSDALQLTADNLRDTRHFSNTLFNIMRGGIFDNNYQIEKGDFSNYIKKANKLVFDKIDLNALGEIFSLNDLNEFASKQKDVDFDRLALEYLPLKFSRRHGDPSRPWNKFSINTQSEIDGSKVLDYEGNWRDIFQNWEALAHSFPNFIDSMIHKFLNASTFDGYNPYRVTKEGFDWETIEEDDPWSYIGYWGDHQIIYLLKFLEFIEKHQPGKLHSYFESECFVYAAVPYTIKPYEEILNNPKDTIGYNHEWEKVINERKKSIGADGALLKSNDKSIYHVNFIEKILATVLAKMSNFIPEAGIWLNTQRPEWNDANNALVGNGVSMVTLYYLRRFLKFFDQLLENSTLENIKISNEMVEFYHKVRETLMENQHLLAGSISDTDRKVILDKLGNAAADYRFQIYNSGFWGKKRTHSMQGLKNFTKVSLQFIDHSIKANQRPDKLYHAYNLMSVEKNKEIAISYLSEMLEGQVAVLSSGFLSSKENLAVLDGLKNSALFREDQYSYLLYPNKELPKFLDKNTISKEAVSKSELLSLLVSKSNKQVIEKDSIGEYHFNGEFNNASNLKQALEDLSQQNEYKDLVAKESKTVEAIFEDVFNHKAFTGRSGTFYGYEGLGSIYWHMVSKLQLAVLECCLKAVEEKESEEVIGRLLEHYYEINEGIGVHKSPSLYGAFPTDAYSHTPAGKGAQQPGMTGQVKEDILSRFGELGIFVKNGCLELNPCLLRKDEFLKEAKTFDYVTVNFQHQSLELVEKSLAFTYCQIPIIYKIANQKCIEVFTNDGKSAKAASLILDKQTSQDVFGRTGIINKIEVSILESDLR
The experiment in a line: X-ray crystal structure (co-crystallization), […] Å. The note with it: 8 mM G6, pH 9.0; surface binding site on catalytic domain, ~30 Å from active site; active site holds bicine and sulfate.

With `OC[C@H]1O[C@@H](O[C@@H]2[C@@H](O)[C@H](O[C@@H]3[C@@H](O)[C@H](O[C@@H]4[C@@H](O)[C@H](O[C@@H]5[C@@H](O)[C@H](O[C@H]6[C@H](O)[C@@H](CO)OC(O)[C@@H]6O)O[C@H](CO)[C@H]5O)O[C@H](CO)[C@H]4O)O[C@H](CO)[C@H]3O)O[C@H](CO)[C@H]2O)[C@H](O)[C@@H](O)[C@@H]1O` (stereo partly shown) [G6, laminarihexaose], the “X-ray crystal structure (co-crystallization), 2.25 Å” value is “G6 bound to a SBS located on the solvent‐exposed surface of the catalytic domain”.
